This test deals with GST-CCNT1 (AA 1–300) (Homo sapiens, UniProt O60563). Kind of test: AlphaLISA disruption of CCNT1-AFF4 peptide interaction. The test is classed as binding.

The text below walks through data of PMC6422358 (Cell, 2018).

Chain of GST-CCNT1 (AA 1–300) (O60563 1-300): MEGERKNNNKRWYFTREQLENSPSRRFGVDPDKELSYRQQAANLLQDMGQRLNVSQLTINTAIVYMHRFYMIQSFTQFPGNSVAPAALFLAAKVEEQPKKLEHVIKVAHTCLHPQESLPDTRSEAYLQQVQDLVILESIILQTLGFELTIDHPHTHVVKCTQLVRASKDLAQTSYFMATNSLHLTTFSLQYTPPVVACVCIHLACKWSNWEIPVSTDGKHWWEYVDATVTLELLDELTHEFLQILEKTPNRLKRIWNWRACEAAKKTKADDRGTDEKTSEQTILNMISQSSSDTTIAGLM

For `COc1cccc(C(=O)/C=C(\O)C(=O)Nc2cc(Cl)ccc2C)c1` [4a, (2Z)-N-(5-Chloro-2-methylphenyl)-2-hydroxy-4-(3-methoxyphenyl)-4-oxo-2butenamide], the inhibition constant (Ki) was determined as 3.48 µM.
